# Values joined by “and” are separate entries in the source; they are usually repeats but may differ in a detail not shown here. Identical values can stand only once. Like-named read-outs stand apart in the source and are kept apart here.
# What was measured:
# [1] = target: T1, UCHL1 (Homo sapiens, UniProt P09936); test: UCHL1 DUB IC50; type: biochemical
# T1 sequence (P09936 1-223): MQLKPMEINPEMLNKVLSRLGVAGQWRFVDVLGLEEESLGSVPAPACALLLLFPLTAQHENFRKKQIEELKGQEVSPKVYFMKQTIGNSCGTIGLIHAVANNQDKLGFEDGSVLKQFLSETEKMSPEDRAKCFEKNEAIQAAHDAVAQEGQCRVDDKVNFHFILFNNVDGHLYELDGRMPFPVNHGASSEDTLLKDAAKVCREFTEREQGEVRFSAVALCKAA
# [2] = target: Cathepsin L (Homo sapiens, UniProt P07711); test: Cathepsin L IC50; type: biochemical
# Cathepsin L, sequence (P07711 114-333, species assumed): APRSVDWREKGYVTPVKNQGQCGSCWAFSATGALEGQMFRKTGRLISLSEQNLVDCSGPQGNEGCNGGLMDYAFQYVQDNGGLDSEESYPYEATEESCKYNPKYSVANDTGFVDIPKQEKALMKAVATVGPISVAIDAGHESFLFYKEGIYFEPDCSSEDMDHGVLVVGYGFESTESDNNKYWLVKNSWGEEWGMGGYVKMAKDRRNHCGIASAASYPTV
# [3] = system: USP2, USP6, USP10, USP16, USP21, USP22, USP25, USP28; test: DUB selectivity panel IC50; type: biochemical
# [4] = target: Cathepsin V (Homo sapiens, UniProt O60911); test: Cathepsin V IC50; type: biochemical
# Cathepsin V, sequence (O60911 114-334, species assumed): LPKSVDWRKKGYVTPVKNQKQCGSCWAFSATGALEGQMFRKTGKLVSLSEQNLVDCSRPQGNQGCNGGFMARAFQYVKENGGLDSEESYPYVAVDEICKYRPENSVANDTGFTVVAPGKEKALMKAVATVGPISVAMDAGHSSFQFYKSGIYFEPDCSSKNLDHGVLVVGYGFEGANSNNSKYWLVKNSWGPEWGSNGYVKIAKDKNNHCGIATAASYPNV
# [5] = target: Cathepsin B (Homo sapiens, UniProt P07858); test: Cathepsin B IC50; type: biochemical
# [6] = target: T2, USP30 (Homo sapiens, UniProt Q70CQ3); test: USP30 biochemical IC50 assay (fluorescence polarisation)
# T2 construct: purchased Boston Biochem E582
# T2 sequence (Q70CQ3 57-517 limits assumed): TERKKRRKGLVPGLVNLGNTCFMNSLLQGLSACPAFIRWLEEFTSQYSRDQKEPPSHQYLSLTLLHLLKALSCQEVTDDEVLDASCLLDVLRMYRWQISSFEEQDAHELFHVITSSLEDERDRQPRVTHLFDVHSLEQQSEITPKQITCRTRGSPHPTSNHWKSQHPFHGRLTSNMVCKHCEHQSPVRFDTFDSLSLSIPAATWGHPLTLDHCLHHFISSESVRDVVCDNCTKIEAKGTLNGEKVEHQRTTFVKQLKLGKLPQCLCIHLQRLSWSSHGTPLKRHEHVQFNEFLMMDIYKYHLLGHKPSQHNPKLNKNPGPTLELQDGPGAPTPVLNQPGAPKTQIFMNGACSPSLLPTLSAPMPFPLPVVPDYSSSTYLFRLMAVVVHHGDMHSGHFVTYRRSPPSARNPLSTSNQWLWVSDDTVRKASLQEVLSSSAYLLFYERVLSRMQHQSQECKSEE
# Procedure: Dilution plates were prepared at 21 times the final concentration (2100 μM for a final concentration of 100 μM) in 50% DMSO in a 96-well polypropylene V-bottom plate (Greiner #651201). A typical 8-point dilution series would be 100, 30, 10, 3, 1, 0.3, 0.1, 0.03 μM final. Reactions were performed in duplicate in black 384 well plates (small volume, Greiner 784076) in a final reaction volume of 21 μl. Either 1 μl of 50% DMSO or diluted compound was added to the plate. USP30 (Boston Biochem #E582) was diluted in reaction buffer (40 mM Tris, pH 7.5, 0.005% Tween 20, 0.5 mg/ml BSA, 5 mM beta-mercaptoethanol) to achieve a final assay concentration of 4 nM, and 10 μl of diluted USP30 was added to the compound. Enzyme and compound were incubated for 30 min at room temp. Reactions were initiated by the addition of 50 nM of TAMRA labelled peptide linked to ubiquitin via an iso-peptide bond as fluorescence polarisation substrate. Reactions were read immediately after addition of substrate and following a 2-hour incubation at room temperature. Readings were performed on a Pherastar Plus (BMG Labtech). λ Excitation 540 nm; λ Emission 590 nm.
# [7] = system: Cathepsins B, K, L, S, V; test: Cathepsin panel IC50 (summary over B, K, L, S, V); type: biochemical; details: for IC50: range over the five cathepsins
# [8] = target: T3, Cathepsin K (Homo sapiens, UniProt P43235); test: Cathepsin K IC50; type: biochemical
# T3 sequence (P43235 115-329): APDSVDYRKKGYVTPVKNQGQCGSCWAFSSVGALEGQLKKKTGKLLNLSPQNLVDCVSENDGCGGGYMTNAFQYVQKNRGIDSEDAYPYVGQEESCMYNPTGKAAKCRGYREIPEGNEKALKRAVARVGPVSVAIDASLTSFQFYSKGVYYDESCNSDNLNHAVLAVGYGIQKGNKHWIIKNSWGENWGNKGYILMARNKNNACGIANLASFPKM
# [9] = target: Cathepsin S (Homo sapiens, UniProt P25774); test: Cathepsin S IC50; type: biochemical
# Cathepsin S, sequence (P25774 115-331, species assumed): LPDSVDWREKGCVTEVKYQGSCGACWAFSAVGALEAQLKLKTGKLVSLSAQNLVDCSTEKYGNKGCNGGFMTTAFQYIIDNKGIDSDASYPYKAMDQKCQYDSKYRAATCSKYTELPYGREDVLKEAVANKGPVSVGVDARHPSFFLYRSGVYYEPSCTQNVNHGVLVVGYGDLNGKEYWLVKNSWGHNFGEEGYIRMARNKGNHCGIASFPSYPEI
# [10] = Mouse plasma stability; type: in vitro ADME; details: mouse plasma; read-out: Stability Mouse plasma t1/2
# [11] = system: mouse hepatocytes; test: Hepatocyte Cl mouse; type: in vitro ADME
# Procedure: Hep Cl mouse: in vitro hepatocyte clearance in mouse cells.
# Clu: in vitro clearance. Clu as defined here is the scaled clearance, in turn calculated from the intrinsic clearance. The intrinsic clearance is the predicted clearance due to hepatic metabolic reactions, determined from incubation of a compound in a hepatocyte preparation.
# [12] = read-out: Cathepsin IC50 (μM) Cathepsin L
# [13] = range over the eight DUBs, read-out: DUB IC50 (μM) USP2, USP6, USP10, USP16, USP21, USP22, USP25, USP28
# [14] = USP30 biochemical IC50 assay, read-out: USP30 IC50
# [15] = read-out: Cathepsin IC50 (μM) B, K, L, S, V
# [16] = read-out: Cathepsin IC50 (μM) Cathepsin U
# [17] = read-out: Cathepsin IC50 (μM) B, K, U, S, V
"IC50 [3, 13] [µM]",IC50 [4] [µM],IC50 [5] [µM],IC50 [1] [µM],"IC50 [6, 14] [µM]",IC50 ([6]; read-out: DUB IC50 (μM) USP30),SMILES,further results
,,,> 300,0.022,0.004 to 0.033 µM,"COC[C@@H]1C[C@@H](NC(=O)c2nnc(-c3cc(C(F)(F)F)ccc3Cl)o2)CN1C#N [Example 11, 5-(2-Chloro-5-(trifluoromethyl)phenyl)-N-((3R,5S)-1-cyano-5-(methoxymethyl)pyrrolidin-3-yl)-1,3,4-oxadiazole-2-carboxamide]",
> 300,> 30,> 300,149,0.015,0.015 µM,"COC[C@H]1C[C@@H](NC(=O)c2ncc(-c3cccc(C(F)(F)F)c3)o2)CN1C#N [Example 12, N-((3R,5R)-1-Cyano-5-(methoxymethyl)pyrrolidin-3-yl)-5-(3-(trifluoromethyl)phenyl)oxazole-2-carboxamide]","IC50 [2, 12]: > 30 µM; DUB selectivity preference for USP30 v 8 DUBs [3]: >20000; IC50 [8]: > 30 µM; Selectivity preference for USP30 v cathepsins [7]: >2000; IC50 [7, 15]: > 30 µM; DUB selectivity preference for USP30 v UCHL1 [1]: 9933; IC50 [9]: > 30 µM"
,7.2,0.85,,0.12,0.12 µM,"N#CN1CC[C@@H](NC(=O)c2cc(-c3ccc(C(F)(F)F)cc3)no2)C1 [Reference Example A, reference compound]","IC50 [2, 16]: 2.1 µM; IC50 ([3]; range over seven DUBs, exc. USP6, read-out: DUB IC50 (μM) USP2, USP6, USP10, USP16, USP21, USP22, USP25, USP28 (exc. USP6)): 0.81 to 3 µM; IC50 [7, 17]: ≥ 0.73 µM; half-life [10]: > 120 min; Hepatocyte Cl mouse Scaled Clu [11]: 118 mL/min/kg"
3.8 to 59.7,2.5,4.6,0.15,0.3,0.3 µM,"N#CN1CC[C@H](C(=O)Nc2cn(-c3cccc(C(F)(F)F)c3)cn2)C1 [Reference Example B, reference compound]","IC50 [2, 16]: 1.1 µM; DUB selectivity preference for USP30 v 7/8 DUBs ([3]; Ref. Ex. A 7 DUBs (exc. USP6), Ref. Ex. B 8 DUBs): 12.7-199; minimum fold more potent against USP30 than against each of the eight DUBs ([3]; USP2, USP6, USP10, USP16, USP21, USP22, USP25, USP28, 'A' not tested against USP6): 12.7 fold; IC50 [8]: 0.91 µM; fold more potent against USP30 than against cathepsin K [8]: 3 fold; Selectivity preference for USP30 v cathepsins [7]: 3.0-21; IC50 [7, 17]: 0.91 to 6.4 µM; DUB selectivity preference for USP30 v UCHL1 [1]: 0.5; fold more potent against USP30 than UCHL1 [1]: 0.5 fold; half-life [10]: 10.4 min; IC50 [9]: 6.4 µM; Hepatocyte Cl mouse Scaled Clu [11]: >121 mL/min/kg"

# The remaining lines, values behind:
SMILES,"IC50 [3, 13] [µM]",IC50 [4] [µM],IC50 [5] [µM],IC50 [1] [µM],"IC50 [6, 14] [µM]",IC50 ([6]; read-out: DUB IC50 (μM) USP30),further results
"N#CN1CC[C@H](C(=O)Nc2ncc(-c3ccccc3)s2)C1 [C, reference compound]",,,,,,,fold more potent against USP30 than UCHL1 [1]: 0.8 fold
"C[C@@H]1C[C@@H](NC(=O)c2ncc(-c3cccc(C(F)(F)F)c3)o2)CN1C#N [Example 2, N-((3R,5R)-1-cyano-5-methylpyrrolidin-3-yl)-5-(3-(trifluoromethyl)phenyl)oxazole-2-carboxamide]",17.2 to 108,56,79,280,0.008,0.008 µM,"IC50 [2, 12]: 7.9 µM"
"CS(=O)(=O)C[C@@H]1C[C@@H](NC(=O)c2ncc(-c3cccc(C(F)(F)F)c3)o2)CN1C#N [Example 3, N-((3R,5S)-1-Cyano-5-((methylsulfonyl)methyl)pyrrolidin-3-yl)-5-(3-(trifluoromethyl)phenyl)-oxazole-2-carboxamide]",,,,,0.003,,
"N#CN1C[C@H](NC(=O)c2ncc(-c3cccc(C(F)(F)F)c3)o2)C[C@H]1Cn1ccnn1 [Example 4, N-((3R,5S)-5-((1H-1,2,3-Triazol-1-yl)methyl)-1-cyanopyrrolidin-3-yl)-5-(3-(trifluoromethyl)phenyl) oxazole-2-carboxamide]",,,,,0.004,,
"COC[C@@H]1C[C@@H](NC(=O)c2nnc(-c3cc(C(F)(F)F)ccc3OC3CC3)o2)CN1C#N [Example 5, N-((3R,5S)-1-Cyano-5-(methoxymethyl)pyrrolidin-3-yl)-5-(2-cyclopropoxy-5-(trifluoromethyl)phenyl)-1,3,4-oxadiazole-2-carboxamide]",,,,,0.041,,
"C[C@@H]1C[C@@H](NC(=O)c2nnc(-c3cc(C(F)(F)F)ccc3OC3CC3)o2)CN1C#N [Example 6, N-((3R,5R)-1-Cyano-5-methylpyrrolidin-3-yl)-5-(2-cyclopropoxy-5-(trifluoromethyl)phenyl)-1,3,4-oxadiazole-2-carboxamide]",,,,,0.073,,
"C[C@@H]1C[C@@H](NC(=O)c2nnc(-c3cccc(C(F)(F)F)c3)o2)CN1C#N [Example 7, N-((3R,5R)-1-Cyano-5-methylpyrrolidin-3-yl)-5-(3-(trifluoromethyl)phenyl)-1,3,4-oxadiazole-2-carboxamide]",,,,> 300,0.033,0.004 to 0.033 µM,
"COC[C@@H]1C[C@@H](NC(=O)c2nnc(-c3cccc(C(F)(F)F)c3)o2)CN1C#N [Example 8, N-((3R,5S)-1-Cyano-5-(methoxymethyl)pyrrolidin-3-yl)-5-(3-(trifluoromethyl)phenyl)-1,3,4-oxadiazole-2-carboxamide]",4.6 to 78.9,> 30,116,> 300,0.038,0.038 µM and 0.004 to 0.033 µM,"IC50 [2, 12]: > 30 µM"
"COC[C@@H]1C[C@@H](NC(=O)c2ncc(-c3cc(C(F)(F)F)ccc3OC3CC3)o2)CN1C#N [Example 9, N-((3R,5S)-1-cyano-5-(methoxymethyl)pyrrolidin-3-yl)-5-(2-cyclopropoxy-5-(trifluoromethyl)phenyl)-oxazole-2-carboxamide]",2.9 to 135,101,> 300,> 300,0.004,0.004 µM and 0.004 to 0.033 µM,"IC50 [2, 12]: 18.2 µM; IC50 [7, 15]: ≥ 9.9 µM"
"COC[C@@H]1C[C@@H](NC(=O)c2nnc(-c3cc(C(F)(F)F)ccc3OC)o2)CN1C#N [Example 10, N-((3R,5S)-1-Cyano-5-(methoxymethyl)pyrrolidin-3-yl)-5-(2-methoxy-5-(trifluoromethyl)phenyl)-1,3,4-oxadiazole-2-carboxamide]",,,,,0.041,,
"CC1CC(C(=O)Nc2ncc(-c3ccccc3)s2)CN1C#N (stereo not drawn) [Reference Example D, reference compound]",,,,,,,fold more potent against USP30 than UCHL1 [1]: 1.5 fold

# Reference: patent US20230219939A1, “N-(1-CYANO-PYRROLIDIN-3-YL)-5-(3-(TRIFLUOROMETHYL)PHENYL)OXAZOLE-2-CARBOXAMIDE DERIVATIVES AND THE CORRESPONDING OXADIAZOLE DERIVATIVES AS USP30 INHIBITORS FOR THE TREATMENT OF MITOCHONDRIAL DYSFUNCTION” (MISSION THERAPEUTICS LIMITED, priority 2020, published 2023)
